Results on 59 compounds are retold here after the RepoRT retention time repository (doi:10.1021/acs.analchem.2c02893).

The nature of the data set: RP, Thermo Scientific Acclaim RSLC 120 C18, 100 × 2.1 mm, 2.2 µm, 30 °C, 0.2 mL/min, estimated dead time 1.1 min; A: 90% water + 10% methanol + 0.01% formic acid + 5 mM ammonium formate, pH 3.61; B: methanol + 0.01% formic acid + 5 mM ammonium formate, pH 3.61; gradient (min/%B) 0/1 1/1 2/39 13/99.9 15/99.9 15.1/1 20.1/1. Conditions: stereoisomer not certain.
Consider `Cc1cc(Cl)ccc1OCCCC(=O)O` [MCPB], for which the LC retention time is 10.1 min.
For the compound `NC1CCc2cc3c(cc2C1)OCO3` (centres undefined) [MDAT], the LC retention time is 4.32 min.
For `CC(C(=O)c1ccc2c(c1)OCO2)N(C)C` (centres undefined) [MDDMA-bk] the value was 3.78 min.
Take `CC(Cc1ccc2c(c1)OCO2)N(C)C` (centres undefined) [MDDMA]: the LC retention time was 4.08 min.
In the case of `CCNC(C)Cc1ccc2c(c1)OCO2` (centres undefined) [MDEA], the LC retention time is 4.39 min.
For the compound `CNC(C)Cc1ccc2c(c1)OCO2` (centres undefined) [MDMA], the LC retention time was 4.18 min.
Consider `COC(=O)C(NC(=O)c1nn(CC2CCCCC2)c2ccccc12)C(C)(C)C` (centres undefined) [MDMB-CHMINACA (MDMB-CHMICA)], for which the LC retention time was 12.9 min.
For `COC(=O)C(NC(=O)c1nn(Cc2ccc(F)cc2)c2ccccc12)C(C)(C)C` (centres undefined) [MDMB-FUBINACA] the value was 11.3 min.
Under `CCC(C(=O)c1ccc2c(c1)OCO2)N1CCCC1` (centres undefined) [MDPBP] stands 4.49 min.
For `CC(C(=O)c1ccc2c(c1)OCO2)N1CCCC1` (centres undefined) [MDPPP (3-4-Methylenedioxy-a-pyrrolidinopropiophenone)] the value was 4.13 min; for `CCCC(C(=O)c1ccc2c(c1)OCO2)N1CCCC1` (centres undefined) [MDPV], 5.18 min; for `CCNC(C)C(=O)c1ccc(C)cc1` (centres undefined) [MEC (4-)], 4.74 min.
For `CCCCCn1cc(C(=O)N2CCN(C)CC2)c2ccccc21` [MEPIRAPIM], the LC retention time was 7.75 min.
For `CCCCC(CC)CN1C(=O)C2C3C=CC(C3)C2C1=O` (centres undefined) [MGK-264] the value was 11.6 min.
For `COC(=O)C(NC(=O)c1cn(CCCCCF)c2ccccc12)C(C)C` (centres undefined) [MMB-2201], the LC retention time was 10 min.
With `CCCCCn1nc(C(=O)Nc2cccc3ccccc23)c2ccccc21` [MN-18], the LC retention time was 13 min.
Under `COc1cccc2c(C(=O)NC3C4(C)CCC(C4)C3(C)C)cn(CCN3CCOCC3)c12` (centres undefined) [MN-25] stands 11.7 min; under `Cc1ccc(C2(c3ccccc3)NC(=O)NC2=O)cc1` (centres undefined) [MPPH (5-(p-Methylphenyl)-5-phenylhydantoin)], 8.12 min.
Under `CSc1ccc(CC(C)N)cc1` (centres undefined) [MTA (4-)] stands 5.24 min; under `CC(C)(C)NCC(O)c1cc(Cl)c(N)c(C(F)(F)F)c1` (centres undefined) [Mabuterol], 5.28 min.
For `CN(C)c1ccc(C(=C2C=CC(=[N+](C)C)C=C2)c2ccccc2)cc1` [Malachite green (MG)] the value was 8.34 min; for `CCOC(=O)CC(SP(=O)(OC)OC)C(=O)OCC` (centres undefined) [Malaoxon], 7.01 min; for `CCOC(=O)CC(SP(=S)(OC)OC)C(=O)OCC` (centres undefined) [Malathion], 9.59 min.
On to `CNCCCC12CCC(c3ccccc31)c1ccccc12` [Maprotiline], for which the LC retention time was 8.08 min.
For the compound `CN1CCN(c2c(F)cc3c(=O)c(C(=O)O)cn4c3c2OCN4C)CC1` [Marbofloxacin], the LC retention time was 4.18 min.
Under `COc1ccc2[nH]cc(CC(C)N)c2c1` (centres undefined) [MeO-AMT (5-)] stands 4.36 min.
As to `C=CCN(CC=C)CCc1c[nH]c2ccc(OC)cc12` [MeO-DALT (5-)], the LC retention time was 4.89 min.
For `COc1ccc2[nH]cc(CCN(C(C)C)C(C)C)c2c1` [MeO-DIPT (5-)] the value was 4.81 min.
As for `COc1ccc2[nH]cc(CCN(C)C)c2c1` [MeO-DMT (5-)], the LC retention time was 3.98 min.
With `COc1ccc2[nH]c(C)c(CCN(C)C)c2c1` [MeO-TMT (5-)], the LC retention time is 4.19 min.
Under `COc1ccc2[nH]cc(CC(=O)O)c2c1` [MeOT (5-)] stands 4.01 min; under `Cc1ccc(C(=O)C(C)N2CCCC2)cc1` (centres undefined) [MePPP (4-4-Methyl-pyrrolidinopropiophenone)], 4.76 min; under `COC(=O)Nc1nc2ccc(C(=O)c3ccccc3)cc2[nH]1` [Mebendazole], 8.25 min.
Under `CCN(CCCCOC(=O)c1ccc(OC)c(OC)c1)C(C)Cc1ccc(OC)cc1` (centres undefined) [Mebeverine] stands 6.79 min; under `CCOC(=O)N(C)C(=O)CSP(=S)(OCC)OCC` [Mecarbam], 10.2 min; under `Cc1ccc(Cl)c(Nc2ccccc2C(=O)O)c1Cl` [Meclofenamic acid], 11.3 min.
For `CC1N=C(c2ccccc2Cl)c2cc([N+](=O)[O-])ccc2NC1=O` (centres undefined) [Meclonazepam] the value was 8.28 min.
Turning to `Cc1cccc(CN2CCN(C(c3ccccc3)c3ccc(Cl)cc3)CC2)c1` (centres undefined) [Meclozine], the LC retention time is 11.3 min.
For `COC(=O)C(C)Oc1ccc(Cl)cc1C` (centres undefined) [Mecoprop-methylester] the value was 10.6 min; for `Cc1cc(Cl)ccc1OC(C)C(=O)O` (centres undefined) [Mecoprop], 8.27 min.
For `CN1CCN=C(c2ccccc2)c2cc(Cl)ccc21` [Medazepam] the value was 10.2 min.
Consider `CCOC(=O)Nc1cccc(OC(=O)Nc2ccccc2)c1` [Medipham-Desmethyl (desmedipham)], for which the LC retention time is 8.57 min.
Under `CC(=O)C1(O)CCC2C3CC(C)C4=CC(=O)CCC4(C)C3CCC21C` (centres undefined) [Medroxyprogesterone] stands 10.7 min; under `CC(=O)OC1(C(C)=O)CCC2C3CC(C)C4=CC(=O)CCC4(C)C3CCC21C` (centres undefined) [Medroxyprogesteroneacetate], 11 min.
Take `CN(C(=O)COc1nc2ccccc2s1)c1ccccc1` [Mefenacet]: the LC retention time is 9.83 min.
Regarding `Cc1cccc(Nc2ccccc2C(=O)O)c1C` [Mefenamic acid], the LC retention time was 11.6 min.
Under `CC(Cc1ccccc1)NCCCCl` (centres undefined) [Mefenorex] stands 5.31 min; under `CCOC(=O)C1=NN(c2ccc(Cl)cc2Cl)C(C)(C(=O)OCC)C1` (centres undefined) [Mefenpyr-diethyl], 11.1 min; under `CCN(CC)CCNC(=O)COc1ccc(OC)cc1` [Mefexamide], 4.31 min.
Take `OC(c1cc(C(F)(F)F)nc2c(C(F)(F)F)cccc12)C1CCCCN1` (centres undefined) [Mefloquine]: the LC retention time was 8.59 min.
`CC(=O)Nc1cc(NS(=O)(=O)C(F)(F)F)c(C)cc1C` [Mefluidide]: the LC retention time is 6.85 min.
For the compound `CN(CC1(C)CCCO1)S(=O)(=O)c1ccc(Cl)c(S(N)(=O)=O)c1` (centres undefined) [Mefruside], the LC retention time was 6.56 min.
Regarding `CC(=O)OC1(C(C)=O)CCC2C3C=C(C)C4=CC(=O)CCC4(C)C3CCC21C` (centres undefined) [Megestrol-17-acetate], the LC retention time was 10.9 min.
`Nc1nc(N)nc(N)n1` [Melamine]: the LC retention time is 1.45 min.
For `COc1ccc2[nH]cc(CCNC(C)=O)c2c1` [Melatonin] the value was 5.36 min; for `CN(C)CCC=C1c2ccccc2C(C)(C)c2ccccc21` [Melitracen], 8.79 min.
For `Cc1cnc(NC(=O)C2=C(O)c3ccccc3S(=O)(=O)N2C)s1` [Meloxicam] the value was 7.09 min; for `CC1CCN(CCCC(=O)c2ccc(F)cc2)CC1` [Melperone], 5.21 min; for `NC(Cc1ccc(N(CCCl)CCCl)cc1)C(=O)O` (centres undefined) [Melphalan], 7.01 min.
